The data set can be described thus: Solubility in the one-pot biocatalysis reaction mixture. In kind it is physicochemical. To be noted: undiluted one-pot biocatalysis reaction mixture (5 mL), 30 °C, aqueous buffer; undiluted 5 mL reaction (25 mM Tris-HCl pH 8.0); dilution to 40 mL and pH 6 increased solubility. The procedure: Referring further to FIG. 13A, Step 1 was conducted in vitro using biocatalytic conversion. Three recombinant enzymes, the prenyl transferase PriB (SEQ.ID NO: 24), in addition to PhoNxt (SEQ.ID NO: 30), and IPKmt (SEQ.ID NO: 32) were individually expressed in E. coli using the following plasmids, respectively: pET26b(+)-PriB, pET28a(+)-IPKmt, and pET21(+)-PhoNxt. Prenyl transferase PriB (SEQ.ID NO: 24) catalyzes the stereospecific 6-prenylation of tryptophan with dimethylallyl pyrophosphate (DMAPP) as the prenyl-donor. A cDNA encoding PriB enzyme (SEQ.ID NO: 23) was synthesized and cloned into pET26b(+) vector by service provider GenScript (www.genscript.com) in-frame with a vector-encoded, N-terminal HIS epitope tag. PhoNxt (SEQ.ID NO: 30) is a non-specific acid phosphatase, while IPKmt (SEQ.ID NO: 32) is an isopentenyl phosphate kinase. Together, these two enzymes can use dimethylallyl alcohol (DMAOH) (www.sigmaaldrich.com) as the starting substrate to produce DMAPP, which in turn is a required co-substrate for PriB. cDNAs encoding IPkmt (SEQ.ID NO: 31) and PhoNxt (SEQ.ID NO: 29) were synthesized and cloned into E.coli expression vectors pET28a(+) and pET21(+), respectively using the Clonal Genes service of Twist Bioscience. Specifically, IPKmt was cloned between the NdeI and XhoI sites of pET28a(+) thus enabling an in-frame, N-terminal HIS tag in the corresponding protein. […]

The term solubility denotes the dissolved amount per volume that the medium holds. For `CC(C)=CCc1ccc2c(C[C@H](N)C(=O)O)c[nH]c2c1` [6-dimethylallyl-tryptophan], the solubility was under 1100 µg/mL.

Values taken from patent publication US11891359B2, “Prenylated psilocybin derivatives and methods of using” (ENVERIC B[…] INC., priority 2021, dated 2024).
